Values of other authors as cited in US9801890B2, “Medical methods utilising high purity diaminophenothiazinium compounds” (WisTa Laboratories Ltd., priority 2004, dated 2017).

How the values were obtained:
West Nile Virus = settings: laboratory tests
viruses = settings: in vitro
HIV = settings: laboratory tests

For `CN(C)c1ccc2nc3ccc(N(C)C)cc3[s+]c2c1.[Cl-]` [MTC, 3,7-bis(dimethylamino) phenothiazin-5-ium chloride], the effectiveness against virus (West Nile Virus) is listed as “effective”, the viricidal activity (viruses) is listed as “potent viricidal activity” and the effectiveness against virus (HIV) is listed as “effective”.
